Measured values from PubChem BioAssay AID248 (DTP/NCI, 2004).
Several values for one entry are separate records, joined by “and”; a condition that tells them apart may be missing. Identical values can stand only once. Toxic doses and inconclusive results are not listed. No stated cut-off is given here; in the data, active means T/C of 150% or more; inactive means T/C below 125%.

System: L1210 leukemia ip in BDF1 mice, survival T/C
Assay: NCI In Vivo Anticancer Drug Screen. Data for tumor model L1210 Leukemia (intraperitoneal) in B6D2F1 (BDF1) mice
Settings: endpoint: mean survival time, higher = longer survival
Outline: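 Transplanted-tumor mice were given test agent; controls received vehicle only. Survival readings from the two groups were divided (treated over control).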

[1] = dose: 100.0 mg/kg/injection, schedule: Q01DX001 (ip), vehicle: saline
[2] = dose: 200.0 mg/kg/injection, schedule: Q01DX001 (ip), vehicle: saline
[3] = dose: 400.0 mg/kg/injection, schedule: Q01DX001 (ip), vehicle: saline
[4] = dose: 100.0 mg/kg/injection, schedule: Q04DX002 (ip), vehicle: Klucel (hydroxypropylcellulose) (HPC)
[5] = dose: 200.0 mg/kg/injection, schedule: Q04DX002 (ip), vehicle: Klucel (hydroxypropylcellulose) (HPC)
[6] = dose: 400.0 mg/kg/injection, schedule: Q04DX002 (ip), vehicle: Klucel (hydroxypropylcellulose) (HPC)
[7] = dose: 100.0 mg/kg/injection, schedule: Q04DX003 (ip), vehicle: saline with Tween-80
[8] = dose: 100.0 mg/kg/injection, schedule: Q01DX009 (ip), vehicle: saline with Tween-80
[9] = dose: 200.0 mg/kg/injection, schedule: Q01DX009 (ip), vehicle: saline with Tween-80
[10] = dose: 200.0 mg/kg/injection, schedule: Q04DX003 (ip), vehicle: saline with Tween-80
[11] = dose: 400.0 mg/kg/injection, schedule: Q01DX009 (ip), vehicle: saline with Tween-80
[12] = dose: 400.0 mg/kg/injection, schedule: Q04DX003 (ip), vehicle: saline with Tween-80
[13] = dose: 25.0 mg/kg/injection, schedule: Q01DX009 (ip), vehicle: saline with Tween-80
[14] = dose: 50.0 mg/kg/injection, schedule: Q01DX009 (ip), vehicle: saline with Tween-80
[15] = dose: 100.0 mg/kg/injection, schedule: Q04DX002 (ip), vehicle: saline with Tween-80
[16] = dose: 200.0 mg/kg/injection, schedule: Q04DX002 (ip), vehicle: saline with Tween-80
[17] = dose: 400.0 mg/kg/injection, schedule: Q04DX002 (ip), vehicle: saline with Tween-80
[18] = dose: 100.0 mg/kg/injection, schedule: Q04DX003 (ip), vehicle: acetone
[19] = dose: 200.0 mg/kg/injection, schedule: Q04DX003 (ip), vehicle: acetone
[20] = dose: 400.0 mg/kg/injection, schedule: Q04DX003 (ip), vehicle: acetone

Measured: T/C

COc1ccccc1C1OC1C(=O)O (configuration not stated)
inactive: [1] 102 % of control | [2] 94 % of control | [3] 103 % of control

C#CCNc1ccc(C(=O)OCC)cc1
inactive: dose: 100.0 mg/kg/injection, schedule: Q04DX002 (ip), vehicle: gum acacia 99 % of control | dose: 200.0 mg/kg/injection, schedule: Q04DX002 (ip), vehicle: gum acacia 108 % of control | dose: 400.0 mg/kg/injection, schedule: Q04DX002 (ip), vehicle: gum acacia 92 % of control

CCN(CC)C(=O)Nc1cccc([N+](=O)[O-])c1
inactive: [4] 104 % of control | [5] 97 % of control | [6] 101 % of control

O=C(/C(=C\c1ccccc1)CBr)c1ccc(Cl)cc1
inactive: [7] 119 % of control

CCN(CC)Cc1cc(Nc2c3ccc(Cl)cc3nc3ccc(OC)cc23)ccc1O
inactive: [4] 105 % of control | [5] 112 % of control | [6] 108 % of control

CCO/C=C/c1ccccc1
inactive: [8] 101 % of control | [7] 93 % of control | [9] 96 % of control | [10] 98 % of control | [11] 90 % of control

COc1ccc(OC(=O)Nc2cccc(C(C)=O)c2)cc1
inactive: dose: 100.0 mg/kg/injection, schedule: Q01DX009 (ip), vehicle: other 106 % of control | dose: 200.0 mg/kg/injection, schedule: Q01DX009 (ip), vehicle: other 89 % of control | dose: 400.0 mg/kg/injection, schedule: Q01DX009 (ip), vehicle: other 101 % of control

COC(=O)C(CCC1CCCCN1)(c1ccccc1)c1ccccc1 (configuration not stated)
inactive: dose: 35.0 mg/kg/injection, schedule: Q01DX009 (ip), vehicle: saline 112 % of control and 119 % of control | dose: 50.0 mg/kg/injection, schedule: Q01DX009 (ip), vehicle: saline 120 % of control | dose: 110.0 mg/kg/injection, schedule: Q01DX009 (ip), vehicle: saline 96 % of control

N#CCCN(C(=O)COc1ccc(Cl)cc1Cl)C1CCCCC1
inactive: dose: 100.0 mg/kg/injection, schedule: Q01DX009 (ip), vehicle: Klucel (hydroxypropylcellulose) (HPC) 95 % of control | dose: 100.0 mg/kg/injection, schedule: Q04DX003 (ip), vehicle: Klucel (hydroxypropylcellulose) (HPC) 95 % of control | dose: 200.0 mg/kg/injection, schedule: Q01DX009 (ip), vehicle: Klucel (hydroxypropylcellulose) (HPC) 104 % of control | dose: 200.0 mg/kg/injection, schedule: Q04DX003 (ip), vehicle: Klucel (hydroxypropylcellulose) (HPC) 100 % of control | dose: 400.0 mg/kg/injection, schedule: Q01DX009 (ip), vehicle: Klucel (hydroxypropylcellulose) (HPC) 95 % of control

O=C(c1ccc(F)cc1)c1ccc([N+](=O)[O-])cc1
inactive: [7] 97 % of control | [10] 97 % of control | [12] 98 % of control

CCCCC(CCCC)NCCO
inactive: dose: 75.0 mg/kg/injection, schedule: Q01DX001 (ip), vehicle: carboxymethylcellulose (CMC) 98 % of control | dose: 150.0 mg/kg/injection, schedule: Q01DX001 (ip), vehicle: carboxymethylcellulose (CMC) 96 % of control

C[n+]1c(/C=C\C=C\N2CCCCC2)sc2ccccc21
inactive: dose: 1.25 mg/kg/injection, schedule: Q04DX002 (ip), vehicle: saline with Tween-80 97 % of control | dose: 2.5 mg/kg/injection, schedule: Q04DX002 (ip), vehicle: saline with Tween-80 108 % of control

CC1(c2cccs2)C(=O)NC(=O)N1C(=O)CCl (configuration not stated)
inactive: [8] 109 % of control | [7] 103 % of control | [9] 106 % of control | [10] 99 % of control

Nc1ccc(S(=O)(=O)c2cc(O)ccc2O)cc1
inactive: dose: 100.0 mg/kg/injection, schedule: Q01DX001 (ip), vehicle: carboxymethylcellulose (CMC) 101 % of control | dose: 200.0 mg/kg/injection, schedule: Q01DX001 (ip), vehicle: carboxymethylcellulose (CMC) 100 % of control | dose: 400.0 mg/kg/injection, schedule: Q01DX001 (ip), vehicle: carboxymethylcellulose (CMC) 97 % of control

Cc1nc(N)c([N+](=O)[O-])cc1[N+](=O)[O-]
inactive: dose: 100.0 mg/kg/injection, schedule: Q01DX009 (ip), vehicle: acetone 100 % of control

Cc1ccc([N+](=O)[O-])cc1NC(=O)NNC(=O)CNC(=O)Nc1ccc(F)cc1
inactive: [13] 94 % of control | [14] 86 % of control | [8] 100 % of control

CCOC(CN1CCCCC1)c1ccccc1 (configuration not stated)
inactive: dose: 12.5 mg/kg/injection, schedule: Q01DX009 (ip), vehicle: saline with Tween-80 98 % of control | [13] 102 % of control | [14] 100 % of control

CC(C)(CCl)c1ccccc1
inactive: [15] 107 % of control | [16] 88 % of control | [17] 88 % of control

CCOC(=O)CCCCN(C(=O)OCc1ccccc1)N(C)C(=O)OCc1ccccc1
inactive: dose: 25.0 mg/kg/injection, schedule: Q04DX003 (ip), vehicle: saline with Tween-80 115 % of control | dose: 50.0 mg/kg/injection, schedule: Q04DX003 (ip), vehicle: saline with Tween-80 95 % of control | [7] 101 % of control | [10] 103 % of control | [12] 97 % of control

CCNC(C)(C)C(SS(=O)(=O)O)c1cccs1 (configuration not stated)
inactive: dose: 100.0 mg/kg/injection, schedule: Q04DX003 (ip), vehicle: water 109 % of control | dose: 200.0 mg/kg/injection, schedule: Q04DX003 (ip), vehicle: water 96 % of control | dose: 400.0 mg/kg/injection, schedule: Q04DX003 (ip), vehicle: water 94 % of control

C1CC2CN(CCCN3CCOCC3)C(C1)O2 (configuration not stated)
inactive: dose: 50.0 mg/kg/injection, schedule: Q01DX001 (ip), vehicle: saline 95 % of control | [1] 101 % of control | [2] 101 % of control | [3] 97 % of control

CCc1ccccc1N=Nc1sc(N)nc1C
inactive: dose: 75.0 mg/kg/injection, schedule: Q01DX001 (ip), vehicle: saline 94 % of control | dose: 150.0 mg/kg/injection, schedule: Q01DX001 (ip), vehicle: saline 100 % of control | dose: 300.0 mg/kg/injection, schedule: Q01DX001 (ip), vehicle: saline 97 % of control

COc1ccccc1C(=O)NS(=O)(=O)c1ccc(Cl)cc1
inactive: [18] 113 % of control | [19] 101 % of control | [20] 96 % of control

CCC(C)NC(=O)Nc1cccc(Cl)c1C (configuration not stated)
inactive: [8] 86 % of control | [7] 90 % of control | [10] 95 % of control | [11] 89 % of control | [12] 103 % of control

O=C1c2cscc2C(O)c2c(Cl)sc(Cl)c21 (configuration not stated)
inactive: [15] 101 % of control | [16] 97 % of control | [17] 89 % of control

CC1(C)CN(N=O)C(C)(C)CN1N=O
inactive: [18] 99 % of control | [19] 103 % of control | [20] 96 % of control
